What was measured:
[1] = tested on: ischemic re-perfusion rat model; experiment: Infarct lesion area and volume, ischemic re-perfusion rat model; assay type: in vivo
Description: An influence of the cyclohexenone long-chain fatty alcoholic compound, which had been prepared in Preparation Example 2, on each of the area and volume of the infarct lesion was studied using an ischemic re-perfusion rat model.
The 8-week-old rats were occluded, at the middle brain artery thereof, with a nylon stopper for 2 hours, followed by intraperitoneal administration of the compound of Preparation Example 2 in amounts of 0.5 mg/kg, 2 mg/kg and 8 mg/kg, respectively, rightly before re-perfusion. After removal of the nylon stopper, re-perfusion was conducted. Twenty four hours after occlusion, the brain was enucleated and each of the area and volume of the infarct lesion was measured in a similar manner to Test 2.

[2] = tested on: middle-cerebral-artery permanently-occluded rat model; experiment: Infarct lesion area and volume, middle-cerebral-artery permanently-occluded rat model; assay type: in vivo
From the text: An influence of the cyclohexenone long-chain fatty alcoholic compound, which had been obtained in Preparation Example 2, on the area and volume of the infarct lesion caused by ischemia was studied using a middle-cerebral-artery permanently-occluded rat model.
The middle cerebral artery of an 8-week-old rat was electrically coagulated and occluded by a bipolar coagulator (MICRO-3D [Mizuho Co., Ltd.]). The compound obtained in Preparation Example 2 was intraperitoneally administered in an amount of 0.3 mg/kg, 2 mg/kg and 8 mg/kg rightly after the occlusion of the middle cerebral artery, respectively. After 24 hours, the brain was enucleated and cut into slices of 2 mm thick. Each slice was stained with 1% 2,3,5-triphenyltetrazolium chloride (TTC), followed by the taking of photos. The photograph was analyzed and the area of the infarct lesion was measured. The volume of the infarct lesion was calculated from the below-described equation. […]
a: infarct area (B+4) on the cross-section 4 mm forward from the forehead, b: infarct area (B+2) on the cross-section 2 mm forward from the forehead, c: infarct area (B) on the cross-section of the forehead, d: infarct area (B-2) on the cross-section 2 mm backward from the forehead, and e: infarct area (B-4) on the-cross-section 4 mm backward from the forehead.

[3] = 2 hours occlusion, intraperitoneal 0.5, 2 and 8 mg/kg rightly before re-perfusion, 24 hours after occlusion
[4] = intraperitoneal dose of 2 mg/kg

## CC1=C(CCCCCCCCCCCCCCCO)C(C)(C)CCC1=O [Preparation Example 2, 3-(15-hydroxypentadecyl)-2,4,4-trimethyl-2-cyclohexen-1-one]
[1]; [3]
  area of the infarct lesion: reduction
  volume of the infarct lesion: reduction
[1]; [4]
  brain protective action: marked brain protective action
[2]; intraperitoneal 0.3, 2 and 8 mg/kg rightly after occlusion, after 24 hours, V=a+2(b+c+d)+e
  volume of the infarct lesion: reduction
[2]; intraperitoneal 0.3, 2 and 8 mg/kg rightly after occlusion, brain taken after 24 hours, TTC staining
  area of the infarct lesion: reduction
[2]; [4]
  brain protective action: marked brain protective action
